From ChEMBL document CHEMBL3769359, “Design of Selective PAK1 Inhibitor G-5555: Improving Properties by Employing an Unorthodox Low-pK a Polar Moiety” (ACS Med Chem Lett, 2015)

Tests used:
[1] = Hepatic clearance in human liver microsomes after 1 hr by LC-MS/MS analysis; type: ADME
[2] = Clearance in CD1 mouse blood at 2 mg/kg, iv after 8 hrs by LC/MS/MS; type: ADME, organism-based; details: whole blood
[3] = AUC (0 to 8 hrs) in CD1 mouse blood at 25 mg/kg, po after 8 hrs by LC/MS/MS; type: ADME, organism-based; design: time < 8 hr, dose 25 mg/kg, route oral; details: whole blood
[4] = Plasma clearance in cynomolgus monkey; type: ADME, organism-based, Macaca fascicularis
[5] = Oral bioavailability in cynomolgus monkey; type: ADME, organism-based, Macaca fascicularis; details: in vivo
[6] = Half life in CD1 mouse blood at 2 mg/kg, iv after 8 hrs by LC/MS/MS; type: ADME, organism-based; details: whole blood
[7] = Oral bioavailability in CD1 mouse blood at 25 mg/kg after 8 hrs by LC/MS/MS; type: ADME, organism-based; details: whole blood

Structure (SMILES)	CLhep predicted [1] [mL/min/kg]	other results
CNc1ncc2cc(-c3ccc(-c4cncc(C)n4)cc3Cl)c(=O)n(C[C@H]3CNCCO3)c2n1	10.7	–
CCNc1ncc2cc(-c3ccc(-c4cncc(C)n4)cc3Cl)c(=O)n(CCCO)c2n1	14.7	–
CNc1ncc2cc(-c3ccc(-c4cccc(C)n4)cc3Cl)c(=O)n(C[C@H]3OC[C@H](N)CO3)c2n1	11.6	clearance [2]: 24.2 mL/min/kg; AUC(0-t) at 8 h [3]: 30 µM·h; clearance [4]: 3.4 mL/min/kg; bioavailability [5]: 72%; half-life [6]: 53 min; bioavailability [7]: 80%
CNc1ncc2cc(-c3ccc(-c4cccc(C)n4)cc3Cl)c(=O)n(C[C@H]3OC[C@H](NC)CO3)c2n1	13.8	–

Further lines, with some results ahead:

CLhep predicted [1] [mL/min/kg]	Structure (SMILES)	other results
12.5	CCNc1ncc2cc(-c3ccc(-c4cncc(C)n4)cc3Cl)c(=O)n(CC3CCNC(=O)C3)c2n1 (centres undefined)	–
9.6	CCNc1ncc2cc(-c3ccc(-c4cncc(C)n4)cc3Cl)c(=O)n(C[C@H]3OC[C@H](N)CO3)c2n1	–
11.6	CNc1ncc2cc(-c3ccc(-c4cccc(C)n4)cc3Cl)c(=O)n(CC3COC4(CNC4)OC3)c2n1	–
17.8	CNc1ncc2cc(-c3ccc(-c4cccc(C)n4)cc3Cl)c(=O)n(C[C@@H]3CCNCC3(F)F)c2n1	–
